US20240115550A1, “TREATMENT OF MENTAL DISORDERS” (GH Research Ireland Limited, priority 2022, published 2024)
Where “and” joins values, the source holds several entries; their conditions need not be identical. Identical values can stand only once.

How the values were obtained:
[1] = Pharmacokinetics after single inhaled dose; type: in vivo, human
[2] = test system: Salmonella typhimurium (TA98, TA100, TA1535 and TA1537); assay: Bacterial mutation test, Salmonella typhimurium; type: cell-based; settings: up to 5000 μg/plate, absence and presence of S-9
Description: (§1) These conditions included treatments at concentrations up to 5000 μg/plate (the maximum recommended concentration according to current regulatory guidelines), in the absence and in the presence of a rat liver metabolic activation system (S-9).

[3] = test system: Escherichia coli (WP2 uvrA pKM101); assay: Bacterial mutation test, Escherichia coli; type: cell-based; settings: up to 5000 μg/plate, absence and presence of S-9
Description: as §1

[4] = test system: patients with postpartum depression (PPD); assay: Clinical trial of inhaled 5-MeO-DMT in postpartum depression; type: in vivo, human; settings: for MADRS response (>=50% improvement) and remission (total <=10): 6 mg then 12 mg
Description: The single-arm, open-label clinical trial will involve 15 adult female patients with clinically diagnosed postpartum depression (PPD).
The second dose (12 mg) will only be administered if: • a. A peak experience (total score of ≥75) has not been achieved following the 6 mg dose, and • b. The 6 mg dose was safe and well-tolerated according to the investigator, • c. Any psychoactive effects (PsE) of the prior dose have subsided, and • d. Pre-dose vital parameters and forced expiratory volume in one second (FEV1) are in normal range, or if outside of the normal range, are not clinically significant according to the investigator. • 3. Similarly, a third dose (18 mg) will only be administered if: • a. A peak experience (total score of ≥75) has not been achieved following the 12 mg dose, and • b. The 12 mg dose was safe and well-tolerated according to the investigator, and • c. Any PsE of the prior dose have subsided, and • d. Pre-dose vital parameters and forced expiratory volume in one second (FEV1) are in normal range, or if outside of the normal range, are not clinically significant according to the investigator.
The patients will be assessed for a peak psychedelic experience (based on a patient-scored visual analogue scale, the PE scale), sedation, and other endpoints after dosing. Follow-up visits are planned for Day 1, and Day 7 after the dosing day.
The following criteria must be met by all patients considered for clinical trial participation: • 1. Is female and in the age range between 18 and 45 years (inclusive) at screening. • 2. Has a body mass index (BMI) in the range of 18.5 and 35 kg/m^2 (inclusive) at screening. • 3. Meets the trial criteria for PPD as assessed by a trial psychiatrist or registered psychologist: • a. Diagnosis of Major Depressive Disorder without psychotic features, confirmed by the Mini-International Neuropsychiatric Interview (MINI), with peri-partum onset that began no earlier than gestation and no later than the first 4 weeks postpartum. • b. Has a Montgomery-Åsberg Depression Rating Scale (MADRS) total score of equal to or greater than 28 at screening and pre-dose on Day 0. • 6. […] Patients must have a negative pregnancy test at screening and on the pre-test day (Day −1). • 5. Is willing to delay start of other antidepressant or anxiety medication until after the end of the trial at Day 7 and agrees to keep any psychotherapy unchanged during the trial.
A potential patient who meets any of the following key exclusion criteria will be excluded from participation in this trial: • 1. Has, based on history, psychiatric assessment, and evaluation of the MINI, a current or prior diagnosis of bipolar disorder, a manic or hypomanic episode, a psychotic disorder, Major Depressive Disorder (MDD) or other mood disorder with psychotic features, obsessive compulsive disorder, post-traumatic stress disorder (PTSD), autism spectrum disorder, borderline personality disorder, schizophrenia, delusional disorder, paranoid personality disorder, schizoaffective disorder, clinically significant intellectual disability, or any other psychiatric comorbidity that renders the patient unsuitable for the trial according to the investigator's judgment. • 2. Has one or more first or second degree relatives with a current or previously diagnosed bipolar disorder, psychotic disorder or other mood disorder (including MDD) with psychotic features. • 3. Is in the judgement of a trial psychiatrist or registered psychologist, at significant risk for suicide based on history, psychiatric assessment, and evaluation of suicidal ideation and suicidal behaviour based on the Columbia-Suicide Severity Rating Scale (C-SSRS). • 4. Has taken anti-depressive medication within 14 days or 5 half-lives (whichever is longer) prior to dosing (exception: within the last 5 weeks in the case of fluoxetine). • 5.

[5] = Infant exposure estimate (DID, RID) from breast milk concentrations
[6] = LC-MS/MS of 5-MeO-DMT and metabolites in breastmilk, serum and urine of a lactating PPD patient
[7] = test system: human hepatocytes (Hμrel HumanPool co-culture); assay: Metabolic stability in Hμrel human hepatocyte co-culture; type: in vitro ADME
Description: The incubations were performed using 1 and 10 μM initial concentrations and sampling at 0, 1, 2, 4, 8, 24, 48, and 72 hours (h) time points. The samples were analysed using UPLC/QE-orbitrap-MS.

human plasma protein = assay: Plasma binding of 5-MIAA; type: in vitro ADME
Description: Binding to human plasma protein was determined. Reported are the unbound fraction (fu) for three replicates as well as the mean unbound fraction, the standard deviation and the mean % recovery (Table 8).

[8] = female, human, breast milk, inhaled
[9] = 2.5 hours after last 5-MeO-DMT dose

## COc1ccc2[nH]cc(CCN(C)C)c2c1 [5-MeO-DMT]
[1]; 3 hours after inhalation
  detectability in plasma: no longer detectable
[1]; repeated within 1 to 4 hours
  accumulation upon repeated administration: No accumulation
[2]
  mutation induction: did not induce mutation
[3]
  mutation induction: did not induce mutation
[4]; first PPD patient
  MADRS response (>=50% improvement) and remission (total <=10): fulfilled standard criteria
[4]; first PPD patient, Day 7
  BIMF management domain, percentage improvement: 18%
  BIMF self-care domain, percentage improvement: 44%
[4]; first PPD patient: cramping left abdominal pain and headache, Day 0
  adverse events: mild, short-lasting and resolved spontaneously
[4]; first PPD patient, Day 1, as E149
  MADRS item score: 0
[4]; first PPD patient, Day 1, rows as E155
  BPRS item score: 1
[4]; first PPD patient, Day 7, rows as E155
  BPRS item score: 1
[4]; first PPD patient, Discharge, item by row: r24 Somatic Concern, r25 Anxiety, r26 Emotional withdrawal, r28 Conceptual disorganization, r30 Guilt feelings, r31 Tension, r32 Mannerisms and Posturing, r34 Grandiosity, r35 Depressive Mood, r36 Hostility, r37 Suspiciousness, r38 Hallucinatory behaviour, r40 Motor retardation, r41 Uncooperativeness, r42 Unusual Thought Content, r44 Blunted affect, r45 E
  BPRS item score: 1
[4]; second PPD patient
  MADRS response (>=50% improvement) and remission (total <=10): fulfilled standard criteria
[4]; second PPD patient: vomiting Day 0, headache Day 5
  adverse events: mild, short-lasting and resolved spontaneously
[5]; 5 kg infant
  Daily Infant Dosage (DID) per kg: 0.0001385 mg/kg/day
[6]; after 24 hours
  detection in breast milk: did not detect
[6]; [8]
  concentration at 2.5 h: 561 µg/mL
  concentration at 8.5 h: 42.1 µg/mL

## COc1ccc2[nH]cc(CCO)c2c1 [5-methoxytryptophol, 5-methoxyindole-3-ethanol]
[7]; 0 h, incubation by row: r7 1 μM Hepatocytes, r8 1 μM Stromal cells, r9 10 μM Hepatocytes, r10 10 μM Stromal cells
  relative LC/MS peak area for 5-methoxytryptophol: 100%
[7]; 1 h, as E141
  relative LC/MS peak area for 5-methoxytryptophol: 79% and 87%
[7]; 2 h, as E141
  relative LC/MS peak area for 5-methoxytryptophol: 57% and 81%
[7]; in 24 h with hepatocytes
  metabolic turnover: complete disappearance

## 5-methoxyindole acetic acid [5-MIAA]
[7]; after 72h with hepatocytes, 1 and 10 μM
  remaining abundance: 75-82%
[7]; human hepatocytes, 1 μM
  in vitro intrinsic clearance: 0.15 μl/min/million cells
Human plasma protein; from mean fraction unbound
  plasma binding: ~50%
Human plasma protein; human plasma
  Mean % Recovery: 81.4%
  unbound fraction (fu), Replicate 1: 0.499
  unbound fraction (fu), Replicate 2: 0.462
  unbound fraction (fu), Replicate 3: 0.544
Human plasma protein; human plasma, three replicates
  Mean fu: 0.502
[5]; 5 kg infant
  DID per kg: 0.001377 mg/kg/day
[5]; three feeds of 250 ml
  total exposure of the infant (DID): 0.006886 mg 5-MIAA/day
[6]; 5-MIAA at 2.5 hours
  urine concentration, times higher than in serum: approx. 127 times
[6]; 1 hour after last 5-MeO-DMT dose
  5-MIAA concentration in breast milk: 13945.2
[6]; [9]
  5-MIAA concentration in breast milk: 13240.9
  5-MIAA urine concentration: 12
[6]; 8.5 hours after last 5-MeO-DMT dose
  5-MIAA concentration in breast milk: 359.4

## CN(C)CCc1c[nH]c2ccc(O)cc12 [bufotenine]
[1]; after 5-MeO-DMT, in no case detected 15 minutes after administration
  detection in human serum: barely detected
[6]; any time point after 5-MeO-DMT
  detection in serum and breastmilk: not detected
[6]; times by row as E172
  Bufotenine in Breastmilk: BLQ (Below limit of quantification. The lower limit of quantification is 25 pg/ml for both 5-MeO-DMT and 5-MIAA in both serum and breastmilk; it is 25 pg/ml in urine for 5-MeO-DMT and 250 pg/ml for 5-MIAA in urine.)
  Bufotenine in Serum: BLQ (Below limit of quantification. The lower limit of quantification is 25 pg/ml for both 5-MeO-DMT and 5-MIAA in both serum and breastmilk; it is 25 pg/ml in urine for 5-MeO-DMT and 250 pg/ml for 5-MIAA in urine.)
